In patent publication US6436913B1, “Use of estramustine phosphate in the treatment of bone metastasis” (Pharmacia & Upjohn Company, priority 2000, dated 2002):
Values belong to the molecule of their own block, whether it stands above or below them.

How the values were obtained:
mouse calvaria = assay: Bone resorption assay, organ culture with 45Ca-prelabeled mouse calvaria (PTH-stimulated 45Ca release); format: cell-based; conditions: for Bone resorption (45Ca release), result in words: in vitro mouse calvaria, compound present during culture; for Resorption / PTH-stimulated 45Ca release, result in words / Resorption, result in words: present only during preincubation; for Resorption / PTH-stimulated 45Ca release, result in words: then washed away
Description: This example used the organ culture technique with mouse calvaria.
The organ culture technique was used with ^45Ca-prelabeled mouse calvaria. The method has been described by Lerner (1987) and Ljunggren et al. (1991). Newborn mice were injected subcutaneously with ^45CaCl (1.5 μCi/animal). After four days their calvaria were dissected, split into quarters and preincubated in phenol red free CMRL 1066 medium supplemented with 0.1% bovine serum albumin and 50 μg/ml gentamicin for 24 hours at 37° C. in a humidified atmosphere of 5% CO2 in air in the presence of indomethacin (1 μmol/l) and 10 nmol/l bovine parathyroid hormone (PTH). After washing the bone pieces, the medium was changed and cultures incubated for three more days in the same medium but without indomethacin in the presence or absence of estramustine phosphate or clodronate. Resorption was measured by assaying the ^45Ca liberated into the medium using a standard technique for liquid scintillation counting. Total ^45Ca was determined after hydrolysing the calvaria in 6 mol/l HCI overnight. Bone resorption was studied in various concentrations of estramustine phosphate and the effect of estramusine phosphate present only during the preincubation stage was checked in order to study its cytotoxcity.
Results are expressed as mean±SEM, n=5 or 10. Inhibition percentage was calculated as follows
Inhibition %=^45Ca released control bones (%)−^45Ca released from sample bones (%) ^45Ca released control bones*100

[1] = Mutual bioavailability of estramustine phosphate and clodronate: serum AUC0-24h and Cmax in patients; conditions: for AUC0-24h Estracyt: serum, mean; for AUC0-24h and Cmax, drug alone versus concomitantly with the other drug / Bioavailability, effect of adding the other drug: patients, clodronate 3200 mg and estramustine phosphate 560 mg daily
Description: (§1) The first group of six patients were given 3200 mg daily of clodronate only for four days. On the fifth day the AUC0-24h for the drug was calculated from serum concentrations of repeated blood samples. On the sixth day, 560 mg estramustine phosphate was add per oral to the clodronate treatment for the following four days. On day ten, the AUC0-24h for both drugs was calculated.
(§2) The second group of six patients were give orally 560 mg daily of estramustine phosphate only for four days. On the fifth day the AUC0-24h for the drug was calculated from serum concentrations of repeated blood samples. On the sixth day, 3200 mg clodronate was added to the estramustine phosphate treatment for the following four days. On day ten, the AUC0-24h for both drugs was calculated. The clodronate was provided as 400 mg capsules, and the estramustine phosphate used was estracyt in 140 mg capsules.
(§3) The method used in the analysis of the serum estramustine phosphate concentrations measures estrone and is insensitive to any metabolites. The estradiol-related metabolites (estramustine and estradiol) were not analyized in connection with the bioanalysis.

clinical = conditions: male, human, serum, oral, 3200 mg
Description: as §1, §2, §3

[2] = Experiment 2 (compound present only during preincubation), 100 μmol/l, mean±SEM

SMILES: C[C@]12CC[C@@H]3c4ccc(OC(=O)N(CCCl)CCCl)cc4CC[C@H]3[C@@H]1CC[C@@H]2OP(=O)([O-])[O-].[Na+].[Na+] [Estramustine phosphate, Estramustine phosphate sodium]
45Ca-release (%) (mouse calvaria; Experiment 1, 0.01 μmol/l, mean±SEM): 51.5 ± 3.0%
Inhibition % (mouse calvaria; Experiment 1, 0.01 μmol/l, mean±SEM, n=5 or 10): 5.5 ± 5.5%
45Ca-release (%) (mouse calvaria; Experiment 1, 0.1 μmol/l, mean±SEM): 50.6 ± 1.6%
Inhibition % (mouse calvaria; Experiment 1, 0.1 μmol/l, mean±SEM, n=5 or 10): 7.2 ± 2.9%
45Ca-release (%) (mouse calvaria; Experiment 1, 1 μmol/l, mean±SEM): 55.4 ± 2.9%
Inhibition % (mouse calvaria; Experiment 1, 1 μmol/l, mean±SEM, n=5 or 10): 2.0 ± 5.4%
45Ca-release (%) (mouse calvaria; Experiment 1, 10 μmol/l, mean±SEM): 34.7 ± 3.1%
Inhibition % (mouse calvaria; Experiment 1, 10 μmol/l, mean±SEM, n=5 or 10): 34.7 ± 3.1%
45Ca-release (%) (mouse calvaria; Experiment 1, 100 μmol/l, mean±SEM): 16.7 ± 0.2%
Inhibition % (mouse calvaria; Experiment 1, 100 μmol/l, mean±SEM, n=5 or 10): 65.3 ± 2.3%
Inhibition % (mouse calvaria; Experiment 1, 1000 μmol/l (precipitate noted for estramustine phosphate), mean±SEM): 55.9 ± 0.6%
45Ca-release (%) (mouse calvaria; Experiment 1, 1000 μmol/l (precipitate), mean±SEM): 24.0 ± 2.2%
Inhibition % (mouse calvaria; Experiment 2 (compound present only during preincubation), 10 μmol/l, mean±SEM): −17.9 ± 8.7%
45Ca-release (%) (mouse calvaria; [2]): 11.9 ± 0.6%
Inhibition % (mouse calvaria; [2]): 70.4 ± 1.4%
Bone resorption (45Ca release), result in words (mouse calvaria): inhibited bone resorption in this in vitro model concentration-dependently and about as effectively as clodronate
Bone resorption (45Ca release), result in words (mouse calvaria; listed as estramustine phosphate sodium): dose-dependently inhibited
Resorption / PTH-stimulated 45Ca release, result in words (mouse calvaria): PTH could not stimulate ^45Ca release from bones
Resorption, result in words (mouse calvaria; 10 μmol/l): slightly increased
Resorption, result in words (mouse calvaria; 100 μmol/l): strongly inhibited
AUC0-24h Estracyt ([1]; Estracyt 560 mg daily concomitantly with Clodronate 3200 mg): 84.74 µM·h
AUC0-24h Estracyt ([1]; Estracyt only, 560 mg daily orally): 47.38 µM·h
AUC0-24h and Cmax, drug alone versus concomitantly with the other drug [1]: differed statistically
Bioavailability, effect of adding the other drug [1]: almost doubled

AUC(0-t) (clinical): 19300 ng·h/mL
Cmax (clinical): 1580 ng/mL
AUC0-24h and Cmax, drug alone versus concomitantly with the other drug [1]: did not differ significantly
Bioavailability, effect of adding the other drug [1]: no effect
SMILES: O=P(O)(O)C(Cl)(Cl)P(=O)(O)O [Clodronate, Disodium clodronate]
inhibition at 0.1 µM (mouse calvaria; Mus musculus, Experiment 1, 0.1 μmol/l, mean±SEM, n=5 or 10): 0.9 ± 1.2%
inhibition at 1 µM (mouse calvaria; Mus musculus, Experiment 1, 1 μmol/l, mean±SEM, n=5 or 10): 3.5 ± 4.2%
inhibition at 10 µM (mouse calvaria; Mus musculus, Experiment 1, 10 μmol/l, mean±SEM, n=5 or 10): 28.3 ± 3.8%
inhibition at 100 µM (mouse calvaria; Mus musculus, Experiment 1, 100 μmol/l, mean±SEM, n=5 or 10): 51.4 ± 1.9%
inhibition at 1000 µM (mouse calvaria; Mus musculus, Experiment 1, 1000 μmol/l (precipitate noted for estramustine phosphate), mean±SEM): 25.7 ± 6.6%
inhibition at 100 µM (mouse calvaria; Mus musculus, Experiment 2 (compound present only during preincubation), 100 μmol/l, mean±SEM): 55.9 ± 0.5%
Resorption / PTH-stimulated 45Ca release, result in words (mouse calvaria): also inhibits resorption
